Patent US10577395B2 (priority 2014, dated 2020)
Marks after values point to notes of the source that are not given here.

Experiments:
[1] = Binding of model ligand 11 (Y = NH), association constant Ka; settings: ratio of Ka for ligand 11 to ligand 12
[2] = cited from earlier work; for ligand, Ka (M^−1), 11, Y = NH: association constant, ligand 11 (Y = NH)
[3] = association constant, ligand 12 (Y = O); cited from earlier work
[4] = test system: vancomycin-resistant Enterococcus faecalis (VanA VRE, BM4166); settings: E. faecalis (BM4166, VanA VRE); earlier studies; cited from earlier work
[5] = test system: vancomycin-resistant Enterococcus faecalis (VanA VRE, BM4166); assay: microbe, parasite or virus in culture; type: cell-based; settings: E. faecalis (BM4166, VanA VRE); tested herein alongside Compounds 1-6
Protocol: Assays were carried out following the methods of Clinical and Laboratory Standards Institute; Methods for Dilution Antimicrobial Susceptibility Tests for Bacteria That Grow Aerobically; Approved Standard, […].; CLSI document M07-A8; Clinical and Laboratory Standards Institute: Wayne, Pa., 2009.
This diluted bacterial stock solution was then inoculated into a well of a V-shaped 96-well glass coated microtiter plate, supplemented with serial diluted aliquots of the antibiotic solution DMSO (4 μL), to achieve a total assay volume of 0.1 mL. The plate was then incubated at 37° C. for 18 hours, after which minimal inhibitory concentrations (MICs) were determined by monitoring the cell growth (observed as a pellet) in the wells. The lowest concentration of antibiotic (in μg/mL) capable of eliminating the cell growth in the wells is reported as the MIC.

| Compound | Ka(11/12) [1] | ligand, Ka (M^−1), 11, Y = NH [2] | ligand, Ka (M^−1), 12, Y = O [3] | VanA MIC [4] | VanA MIC, μg/mL [5] | binding affinity for both target ligands relative to vancomycin aglycon with D-Ala-D-Ala ([2]; D-Ala-D-Ala and D-Ala-D-Lac) |
| --- | --- | --- | --- | --- | --- | --- |
| CN[C@H](CC(C)C)C(=O)N[C@H]1C(=O)N[C@@H](CC(N)=O)C(=O)N[C@H]2C(=O)N[C@H]3C(=O)N[C@H](C(=O)N[C@H](C(=O)O)c4cc(O)cc(O)c4-c4cc3ccc4O)[C@H](O)c3ccc(c(Cl)c3)Oc3cc2cc(c3O)Oc2ccc(cc2Cl)[C@H]1O [Compound 7, vancomycin aglycon] | 1400 | 170000 M⁻¹ | 120 M⁻¹ | 640 µg/mL |  |  |
| CN[C@H](CC(C)C)C(=O)N[C@H]1C(=O)N[C@@H](CC(N)=O)C(=O)N[C@H]2C(=S)NC3C(=O)N[C@H](C(=O)N[C@H](C(=O)O)c4cc(O)cc(O)c4-c4cc3ccc4O)[C@H](O)c3ccc(c(Cl)c3)Oc3cc2cc(c3O)Oc2ccc(cc2Cl)[C@H]1O [Compound 8, [Ψ[C(═S)NH]Tpg^4]vancomycin aglycon] |  | 170 M⁻¹ | 11 M⁻¹ | >640 µg/mL |  |  |
| CN[C@H](CC(C)C)C(=O)N[C@H]1C(=O)N[C@@H](CC(N)=O)C(=O)N[C@H]2C(=N)NC3C(=O)N[C@H](C(=O)N[C@H](C(=O)O)c4cc(O)cc(O)c4-c4cc3ccc4O)[C@H](O)c3ccc(c(Cl)c3)Oc3cc2cc(c3O)Oc2ccc(cc2Cl)[C@H]1O [Compound 9, [Ψ[C(═NH)NH]Tpg^4]vancomycin aglycon] | 1.05 | 73000 M⁻¹ | 69000 M⁻¹ |  | 1^b μg/mL | ≤ 2 fold |
| [Ψ[CH2NH]Tpg^4]vancomycin aglycon [Compound 10] | 0.9 | 4800 M⁻¹ | 5200 M⁻¹ | 31 µg/mL |  |  |
